Experimental data as given in patent US20240109853A1 (Shanghai Yao Yuan Biotechnology Co., Ltd., priority 2020, published 2024).
Where two headings read alike, the source gives them in different places.

Assays:
[1] = test system: ALPK1-dependent NFκB reporter gene activation in HEK293 cells stably expressing an NF-kB reporter (G9 cells); assay: NFκB gene reporter alkaline phosphatase assay; type: cell-based; settings: read-out: NFkB assay IC50
How it was run: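 HEK293 G9 cells stably carrying an NF-kB alkaline phosphatase reporter were seeded at 10,000 cells/well in Freestyle 293 medium and attached overnight. They were pretreated with serially diluted compound for 30 min, then stimulated with D-glycero-D-manno-6-fluoro-heptose-1β-S-ADP. Reporter phosphatase was read with pNPP; IC50 from logistic fit.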

ALPK1 = ALPK1 (Homo sapiens (Human), UniProt Q96QP1); assay: ALPK1 in vitro kinase assay (HTRF of TIFA phosphorylation); type: biochemical
Sequence of ALPK1 (Q96QP1 whole entry): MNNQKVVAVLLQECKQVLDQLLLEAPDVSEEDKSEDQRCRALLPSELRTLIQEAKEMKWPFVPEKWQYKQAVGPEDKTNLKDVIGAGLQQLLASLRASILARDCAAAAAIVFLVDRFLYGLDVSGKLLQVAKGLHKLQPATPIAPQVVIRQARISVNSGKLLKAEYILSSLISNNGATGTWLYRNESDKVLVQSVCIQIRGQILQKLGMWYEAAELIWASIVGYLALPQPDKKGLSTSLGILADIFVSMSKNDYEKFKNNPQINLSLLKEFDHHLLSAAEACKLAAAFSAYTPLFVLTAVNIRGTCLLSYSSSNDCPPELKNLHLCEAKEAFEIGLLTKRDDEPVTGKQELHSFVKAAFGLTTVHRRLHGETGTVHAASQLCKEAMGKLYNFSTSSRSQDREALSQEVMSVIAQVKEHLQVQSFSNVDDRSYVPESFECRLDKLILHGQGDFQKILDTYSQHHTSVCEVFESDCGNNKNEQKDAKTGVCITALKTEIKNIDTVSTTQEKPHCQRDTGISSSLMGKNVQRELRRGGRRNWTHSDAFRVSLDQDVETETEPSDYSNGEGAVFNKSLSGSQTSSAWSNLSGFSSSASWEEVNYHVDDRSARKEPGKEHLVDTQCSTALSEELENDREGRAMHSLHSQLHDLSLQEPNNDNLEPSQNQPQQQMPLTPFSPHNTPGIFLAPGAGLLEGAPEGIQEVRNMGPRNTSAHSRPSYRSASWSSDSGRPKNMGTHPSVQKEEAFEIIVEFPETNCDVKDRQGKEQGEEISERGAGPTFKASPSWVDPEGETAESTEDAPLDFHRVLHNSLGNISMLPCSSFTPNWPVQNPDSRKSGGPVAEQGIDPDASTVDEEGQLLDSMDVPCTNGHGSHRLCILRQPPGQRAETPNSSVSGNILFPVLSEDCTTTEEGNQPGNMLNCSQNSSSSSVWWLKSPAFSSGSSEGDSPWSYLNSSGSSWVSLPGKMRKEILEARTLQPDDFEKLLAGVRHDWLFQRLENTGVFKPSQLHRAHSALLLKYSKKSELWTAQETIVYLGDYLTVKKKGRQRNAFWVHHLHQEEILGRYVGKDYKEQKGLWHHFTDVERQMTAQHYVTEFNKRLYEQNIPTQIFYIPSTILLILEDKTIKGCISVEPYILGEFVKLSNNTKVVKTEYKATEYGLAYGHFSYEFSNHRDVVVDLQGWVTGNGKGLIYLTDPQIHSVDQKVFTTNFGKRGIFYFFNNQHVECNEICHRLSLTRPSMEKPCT

Compound: C#CC(C)(c1ccc(Cl)cc1)c1csc(NC(=O)NCCO)n1 (stereo not shown) [Example A174, 1-(4-(2-(4-chlorophenyl)but-3-yn-2-yl)thiazol-2-yl)-3-(2-hydroxyethyl)urea]
- IC50 ([1]; Homo sapiens, HEK293): 310 nM
- IC50 (ALPK1): 34 nM

Compound: CC(C)(c1ccc(Br)cc1)c1csc(NC(=O)NCCN2CCNCC2)n1 [Example A177, 1-(4-(2-(4-bromophenyl)propan-2-yl)thiazol-2-yl)-3-(2-(piperazin-1-yl)ethyl)urea]
- IC50 ([1]; Homo sapiens, HEK293): 1660 nM
- IC50 (ALPK1): 249 nM

Compound: CC(C)(c1ccc(Cl)c(F)c1)c1csc(NC(=O)NCc2cnc(N3CCNCC3)nc2)n1 [Example A179, 1-(4-(2-(4-chloro-3-fluorophenyl)propan-2-yl)thiazol-2-yl)-3-((2-(piperazin-1-yl)pyrimidin-5-yl)methyl)urea]
- IC50 ([1]; Homo sapiens, HEK293): 1360 nM
- IC50 (ALPK1): 95 nM

Compound: CC(C)(c1ccc(Br)cc1)c1csc(NC(=O)NCc2ccnc(N3CCNCC3)c2)n1 [Example A181, 1-(4-(2-(4-bromophenyl)propan-2-yl)thiazol-2-yl)-3-((2-(piperazin-1-yl)pyridin-4-yl)methyl)urea]
- IC50 ([1]; Homo sapiens, HEK293): 1520 nM
- IC50 (ALPK1): 131 nM

Compound: CC(C)(c1ccc(Br)cc1)c1csc(NC(=O)NCc2cccc(N3CCNCC3)n2)n1 [Example A182, 1-(4-(2-(4-bromophenyl)propan-2-yl)thiazol-2-yl)-3-((6-(piperazin-1-yl)pyridin-2-yl)methyl)urea]
- IC50 ([1]; Homo sapiens, HEK293): 4300 nM
- IC50 (ALPK1): 163 nM

Compound: COc1ccc(C(C)(C)c2csc(NC(=O)NCc3ccc(NCCN)cc3)n2)cc1 [Example A183, 1-(4-((2-aminoethyl)amino)ben-yzl)-3-(4-(2-(4-methoxyphenyl)propan-2-yl)thiazol-2-yl)urea]
- IC50 ([1]; Homo sapiens, HEK293): 2310 nM
- IC50 (ALPK1): 52 nM

Compound: COc1ccc(C(C)(C)c2csc(NC(=O)NCc3ccc(N4CCC(N)C4)nc3)n2)cc1 (stereo not shown) [Example A186, 1-((6-(3-aminopyrrolidin-1-yl)pyridin-3-yl)methyl)-3-(4-(2-(4-methoxyphenyl)propan-2-yl)thiazol-2-yl)urea]
- IC50 [1]: 1550 nM
- IC50 (ALPK1): 19 nM

Compound: COc1ccc(C(C)(C)c2csc(NC(=O)NCc3cnc(N4CCC(N)C4)nc3)n2)cc1 (stereo not shown) [Example A187, 1-((2-(3-aminopyrrolidin-1-yl)pyrimidin-5-yl)methyl)-3-(4-(2-(4-methoxyphenyl)propan-2-yl)thiazol-2-yl)urea]
- IC50 ([1]; Homo sapiens, HEK293): 700 nM
- IC50 (ALPK1): 7 nM

Compound: CC(C)(c1ccc(Br)cc1)c1csc(NC(=O)NCc2ccc(N3CCC(N)C3)nc2)n1 (stereo not shown) [Example A189, 1-((6-(3-aminopyrrolidin-1-yl)pyridin-3-yl)methyl)-3-(4-(2-(4-bromophenyl)propan-2-yl)thiazol-2-yl)urea]
- IC50 ([1]; Homo sapiens, HEK293): 2310 nM
- IC50 (ALPK1): 41 nM

Compound: COc1ccc(C(C)(C)c2csc(NC(=O)NCC3CC(N)C3)n2)cc1 (stereo not shown) [Example A190, 1-((3-aminocyclobutyl)methyl)-3-(4-(2-(4-methoxyphenyl)propan-2-yl)thiazol-2-yl)urea]
- IC50 ([1]; Homo sapiens, HEK293): 3020 nM
- IC50 (ALPK1): 458 nM

Compound: NC1CCN(c2ccc(CNC(=O)Nc3nc(C4(c5ccc(Br)cc5)CCCC4)cs3)cc2)CC1 [Example A191, 1-(4-(4-aminopiperidin-1-yl)benzyl)-3-(4-(1-(4-bromophenyl)cyclopent-yl)thiazol-2-yl)urea]
- IC50 ([1]; Homo sapiens, HEK293): 6910 nM
- IC50 (ALPK1): 80 nM

Compound: O=C(NCc1cc(F)c(N2CCNCC2)c(F)c1)Nc1nc(C2(c3ccc(Br)cc3)CCCC2)cs1 [Example A192, 1-(4-(1-(4-bromophenyl)cyclopent-yl)thiazol-2-yl)-3-(3,5-difluoro-4-(piperazin-1-yl)benzyl)urea]
- IC50 ([1]; Homo sapiens, HEK293): 4340 nM
- IC50 (ALPK1): 106 nM

Compound: CC1CN(c2ccc(CNC(=O)Nc3nc(C(C)(C)c4ccc(Br)cc4)cs3)cc2)CCN1 (stereo not shown) [Example A194, 1-(4-(2-(4-bromophenyl)propan-2-yl)thiazol-2-yl)-3-(4-(3-methylpiperazin-1-yl)benzyl)urea]
- IC50 ([1]; Homo sapiens, HEK293): 3710 nM
- IC50 (ALPK1): 172 nM

Compound: CC(C)(c1ccc(Br)cc1)c1csc(NC(=O)NCc2ccc(N3CCNC(=O)C3)cc2)n1 [Example A195, 1-(4-(2-(4-bromophenyl)propan-2-yl)thiazol-2-yl)-3-(4-(3-oxopiperazin-1-yl)benzyl)urea]
- IC50 ([1]; Homo sapiens, HEK293): 9940 nM
- IC50 (ALPK1): 132 nM

Compound: CC(C)(c1ccc(Br)c(F)c1)c1csc(NC(=O)NCc2cnc(N3CCNCC3)nc2)n1 [Example A196, 1-(4-(2-(4-bromo-3-fluorophenyl)propan-2-yl)thiazol-2-yl)-3-((2-(piperazin-1-yl)pyrimidin-5-yl)methyl)urea]
- IC50 ([1]; Homo sapiens, HEK293): 3340 nM
- IC50 (ALPK1): 76 nM

Compound: CC(C)(c1ccc(Br)cc1)c1csc(NC(=O)NCc2ccc(NCCN)c(F)c2)n1 [Example A198, 1-(4-((2-aminoethyl)amino)-3-fluorobenzyl)-3-(4-(2-(4-bromophenyl)propan-2-yl)thiazol-2-yl)urea]
- IC50 ([1]; Homo sapiens, HEK293): 1320 nM
- IC50 (ALPK1): 18 nM

Compound: COc1ccc(C(C)(C)c2csc(NC(=O)NCc3ccc(N4CCC(N)C4)cn3)n2)cc1 (stereo not shown) [Example A200, 1-((5-(3-aminopyrrolidin-1-yl)pyridin-2-yl)methyl)-3-(4-(2-(4-methoxyphenyl)propan-2-yl)thiazol-2-yl)urea]
- IC50 ([1]; Homo sapiens, HEK293): 520 nM
- IC50 (ALPK1): 43 nM

Compound: COc1ccc(C(C)(C)c2csc(NC(=O)NCc3cc(F)c(N4CCC(N)C4)c(F)c3)n2)cc1 (stereo not shown) [Example A201, 1-(4-(3-aminopyrrolidin-1-yl)-3,5-difluorobenzyl)-3-(4-(2-(4-methoxyphenyl)propan-2-yl)thiazol-2-yl)urea]
- IC50 ([1]; Homo sapiens, HEK293): 530 nM
- IC50 (ALPK1): 25 nM

Compound: COc1ccc(C(C)(C)c2csc(NC(=O)NCc3ccc(NCCN)nc3)n2)cc1 [Example A202, 1-((6-((2-aminoethyl)amino)pyridin-3-yl)methyl)-3-(4-(2-(4-methoxyphenyl)propan-2-yl)thiazol-2-yl)urea]
- IC50 ([1]; Homo sapiens, HEK293): 5710 nM
- IC50 (ALPK1): 34 nM

Compound: COc1ccc(C(C)(C)c2csc(NC(=O)NCc3ccc(C(=O)NCCN)nc3)n2)cc1 [Example A203, N-(2-aminoethyl)-5-((3-(4-(2-(4-methoxyphenyl)propan-2-yl)thiazol-2-yl)ureido)methyl)picolin-amide]
- IC50 ([1]; Homo sapiens, HEK293): 5700 nM
- IC50 (ALPK1): 94 nM

Compound: CC(C)(c1ccc(Br)cc1)c1csc(NC(=O)NCc2ccc(N3CCC(N)CC3)cc2)n1 [Example A204, 1-(4-(4-aminopiperidin-1-yl)benzyl)-3-(4-(2-(4-bromophenyl)propan-2-yl)thiazol-2-yl)urea]
- IC50 ([1]; Homo sapiens, HEK293): 1890 nM
- IC50 (ALPK1): 9 nM

Compound: CC(C)(c1ccc(Br)cc1)c1csc(NC(=O)NCc2ccc(NCCN)cc2)n1 [Example A205, 1-(4-((2-aminoethyl)amino)ben-zyl)-3-(4-(2-(4-bromophenyl)propan-2-yl)thiazol-2-yl)urea]
- IC50 ([1]; Homo sapiens, HEK293): 1480 nM
- IC50 (ALPK1): 59 nM

Compound: CC(C)(c1ccc(Br)cc1)c1csc(NC(=O)NCc2ccnc(N3CCNCC3)c2F)n1 [Example A207, 1-(4-(2-(4-bromophenyl)propan-2-yl)thiazol-2-yl)-3-((3-fluoro-2-(piperazin-1-yl)pyridin-4-yl)methyl)urea]
- IC50 ([1]; Homo sapiens, HEK293): 2180 nM
- IC50 (ALPK1): 99 nM

Compound: COc1ccc(C(C)(C)c2csc(NC(=O)NCc3cnc(N4CCN(CCO)CC4)nc3)n2)cc1 [Example A208, 1-((2-(4-(2-hydroxyethyl)piperazin-1-yl)pyrimidin-5-yl)methyl)-3-(4-(2-(4-methoxyphenyl)propan-2-yl)thiazol-2-yl)urea]
- IC50 ([1]; Homo sapiens, HEK293): 760 nM
- IC50 (ALPK1): 78 nM

Compound: CC(C)(c1ccc(Br)cc1)c1csc(NC(=O)NCCN)n1 [Example A210, 1-(2-aminoethyl)-3-(4-(2-(4-bromophenyl)propan-2-yl)thiazol-2-yl)urea]
- IC50 ([1]; Homo sapiens, HEK293): 4160 nM
- IC50 (ALPK1): 95 nM

Compound: CC(C)(c1ccc(Br)cc1)c1csc(NC(=O)NCc2ccc(N3CCC(CN)CC3)cc2)n1 [Example A211, 1-(4-(4-(aminomethyl)piperidin-1-yl)benzyl)-3-(4-(2-(4-bromophenyl)propan-2-yl)thiazol-2-yl)urea]
- IC50 ([1]; Homo sapiens, HEK293): 2590 nM
- IC50 (ALPK1): 94 nM

Compound: CC(C)(c1ccc(Br)cc1)c1csc(NC(=O)NCc2ccc(OCCN)cc2)n1 [Example A212, 1-(4-(2-aminoethoxy)benzyl)-3-(4-(2-(4-bromophenyl)propan-2-yl)thiazol-2-yl)urea]
- IC50 ([1]; Homo sapiens, HEK293): 2750 nM
- IC50 (ALPK1): 289 nM

Compound: CC1CN(c2ccc(CNC(=O)Nc3nc(C(C)(C)c4ccc(Br)cc4)cs3)cc2)CC(C)N1 (stereo not shown) [Example A213, 1-(4-(2-(4-bromophenyl)propan-2-yl)thiazol-2-yl)-3-(4-(3,5-dimethylpiperazin-1-yl)benzyl)urea]
- IC50 ([1]; Homo sapiens, HEK293): 6380 nM
- IC50 (ALPK1): 9 nM

Compound: CC(C)(c1ccc(Br)cc1)c1csc(NC(=O)NCc2ccc(CN3CCNCC3)c(F)c2)n1 [Example A214, 1-(4-(2-(4-bromophenyl)propan-2-yl)thiazol-2-yl)-3-(3-fluoro-4-(piperazin-1-ylmethyl)benzyl)urea]
- IC50 ([1]; Homo sapiens, HEK293): 1560 nM
- IC50 (ALPK1): 40 nM

Compound: COc1ccc(C(C)(C)c2csc(NC(=O)NCc3cnc(N4CCC(C(N)=O)CC4)nc3)n2)cc1 [Example A215, 1-(5-((3-(4-(2-(4-methoxyphenyl)propan-2-yl)thiazol-2-yl)ureido)methyl)pyrimi-din-2-yl)piperidine-4-carboxamide]
- IC50 ([1]; Homo sapiens, HEK293): 2210 nM
- IC50 (ALPK1): 150 nM

Compound: COc1ccc(C(C)(C)c2csc(NC(=O)NCc3cnc(N4CCN(CCO)CC4)c(F)c3)n2)cc1 [Example A216, 1-((5-fluoro-6-(4-(2-hydroxyethyl)piperazin-1-yl)pyridin-3-yl)methyl)-3-(4-(2-(4-methoxyphenyl)propan-2-yl)thiazol-2-yl)urea]
- IC50 ([1]; Homo sapiens, HEK293): 1430 nM
- IC50 (ALPK1): 61 nM

Compound: COc1ccc(C(C)(C)c2csc(NC(=O)NCc3ccc(C(=O)N4CCC(N)C4)nc3)n2)cc1 (stereo not shown) [Example A217, 1-((6-(3-aminopyrrolidine-1-carbonyl)pyridin-3-yl)methyl)-3-(4-(2-(4-methoxyphenyl)propan-2-yl)thiazol-2-yl)urea]
- IC50 ([1]; Homo sapiens, HEK293): 32600 nM
- IC50 (ALPK1): 56 nM
